Among the data in PubChem BioAssay (NCI) are TGI values, retold here.

Test systems include NCI-H522 lung; MALME-3M melanoma; HS 578T breast; SNB-19 CNS; UO-31 renal; SW-620 colon; NCI-H226 lung; A498 renal; T-47D breast; MOLT-4 leukemia; U251 CNS; RXF 393 renal; ACHN renal; MDA-N; PC-3 prostate; UACC-62 melanoma; COLO 205 colon; NCI/ADR-RES ovarian; HCT-116 colon.
What all share (assay): growth of human tumour cells (NCI), 48 h

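Five compound concentrations were applied to cells in 96-well plates for 48 hours; endpoints were derived by simple linear interpolation of the resulting dose-response curve. TGI marks complete inhibition of growth.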

In the case of `Cc1cccc2c(N)c3cccc(C(=O)NCCCNCCN)c3nc12`, the TGI was found to be 0.0786 µM in the assay with NCI-H522 lung; 19.9 µM in the assay with MALME-3M melanoma; 3.71 µM in the assay on HS 578T breast; 15 µM in the assay with SNB-19 CNS; 46.8 µM with UO-31 renal; 33.3 µM in the assay on SW-620 colon. In addition, the TGI came to 9.15 µM in the assay with NCI-H226 lung; 30.1 µM in the assay on A498 renal; 24.8 µM in the assay on T-47D breast; 17.4 µM in the assay on MOLT-4 leukemia; 9.31 µM in the assay on U251 CNS; 18.6 µM in the assay on RXF 393 renal. Further, the TGI with ACHN renal was found to be 32.8 µM; in the assay on MDA-N, 27 µM; in the assay on PC-3 prostate it was 35.3 µM; with UACC-62 melanoma, 19 µM; in the assay on COLO 205 colon, 20.1 µM; with NCI/ADR-RES ovarian it was 77.9 µM. In the assay with HCT-116 colon, the TGI stood at 25.9 µM.

As for `C=C1CC[C@@]2(OC1)OC1C[C@H]3[C@@H]4CC=C5C[C@@H](O)CC(OC6OCC(OC(=O)[C@@H](O)[C@@H](C)CC)C(OC(C)=O)C6OC6OC(C)C(O)C(O)C6O)[C@]5(C)[C@H]4CC[C@]3(C)C1[C@@H]2C` (stereo partly specified), the TGI in the assay with NCI-H522 lung is 3.27 µM; with MALME-3M melanoma, > 10 µM; in the assay with HS 578T breast it was > 10 µM; with SNB-19 CNS, 3.87 µM; with UO-31 renal, 4.56 µM; with SW-620 colon, 4.51 µM. The TGI in the assay with NCI-H226 lung was 6.01 µM; in the assay with A498 renal it was 3.44 µM; in the assay on T-47D breast, > 10 µM; with MOLT-4 leukemia, 3.54 µM; in the assay on U251 CNS, 3.21 µM; with RXF 393 renal, 4.48 µM. Moreover, the TGI was found to be 5.93 µM with ACHN renal; 3.51 µM in the assay on MDA-N; 3.16 µM with PC-3 prostate; 3.37 µM in the assay on UACC-62 melanoma; 4.5 µM in the assay with COLO 205 colon; 6 µM in the assay on NCI/ADR-RES ovarian. Besides, in the assay with HCT-116 colon, the TGI is 3.06 µM.

In the case of `Nc1nc(Cl)cc(NCC2(CO)CC(OCc3ccccc3)C2)n1` (stereo unspecified), the TGI in the assay on NCI-H522 lung, in the assay with MALME-3M melanoma, in the assay with HS 578T breast, in the assay with SNB-19 CNS, in the assay on UO-31 renal and in the assay with SW-620 colon was > 100 µM each time. Also, the TGI in the assay on NCI-H226 lung was > 100 µM; in the assay with A498 renal, 86.5 µM; with T-47D breast, 41.9 µM; in the assay on U251 CNS, > 100 µM; with RXF 393 renal, > 100 µM; in the assay with ACHN renal, > 100 µM. The TGI with MDA-N, in the assay on PC-3 prostate, with UACC-62 melanoma, in the assay on COLO 205 colon, in the assay with NCI/ADR-RES ovarian and in the assay with HCT-116 colon was > 100 µM each time.

`CO/N=C(\C(=O)Nc1cncs1)c1csc(NC(c2ccccc2)(c2ccccc2)c2ccccc2)n1`: the TGI in the assay on NCI-H522 lung, with MALME-3M melanoma, in the assay on HS 578T breast, in the assay with SNB-19 CNS, in the assay on UO-31 renal and in the assay on SW-620 colon was > 10 µM each time. The TGI with NCI-H226 lung, in the assay on A498 renal, in the assay on T-47D breast, in the assay with MOLT-4 leukemia, in the assay with U251 CNS and with RXF 393 renal was > 10 µM each time. Further, the TGI in the assay with ACHN renal, with MDA-N, with PC-3 prostate, in the assay with COLO 205 colon, in the assay with NCI/ADR-RES ovarian and in the assay with HCT-116 colon was > 10 µM in each case.

`CCOC(=O)C(Cl)(NC(=O)c1ccc(F)cc1)C(F)(F)F` (stereo unspecified): the TGI in the assay on NCI-H522 lung, in the assay on MALME-3M melanoma, with HS 578T breast, in the assay with SNB-19 CNS, with UO-31 renal and with SW-620 colon was > 100 µM each time. Further, the TGI in the assay on NCI-H226 lung, with A498 renal, in the assay with T-47D breast, in the assay with MOLT-4 leukemia, in the assay on U251 CNS and in the assay with RXF 393 renal was > 100 µM throughout. Moreover, the TGI with ACHN renal, with MDA-N, in the assay on PC-3 prostate, with COLO 205 colon, in the assay on NCI/ADR-RES ovarian and in the assay with HCT-116 colon was > 100 µM throughout.

As for `Clc1ccc2c(NCCCCN=Cc3ccccc3)ccnc2c1`, the TGI in the assay on NCI-H522 lung was 24.5 µM; with MALME-3M melanoma, 27.5 µM; with HS 578T breast, 36.6 µM; with SNB-19 CNS, 45.7 µM; in the assay on UO-31 renal it was 40.3 µM; in the assay with SW-620 colon, 25.2 µM. The TGI in the assay with NCI-H226 lung was 20 µM; with A498 renal it was 7.26 µM; with T-47D breast, 45.7 µM; with MOLT-4 leukemia, 25.7 µM; in the assay with U251 CNS, 24.5 µM; in the assay with RXF 393 renal, 16.6 µM. Moreover, the TGI in the assay with ACHN renal was found to be 49 µM; in the assay on MDA-N, 23.9 µM; with PC-3 prostate it was 25.1 µM; in the assay with COLO 205 colon, 18.1 µM; with NCI/ADR-RES ovarian, 46.7 µM; in the assay with HCT-116 colon, 18.4 µM.

With `CSc1ccc(C2C(Cl)C(=O)N2NC(=O)c2c(Cl)c(Cl)c(Cl)c(Cl)c2-c2nc3ccccc3[nH]2)cc1` (stereo unspecified), the TGI was 4.87 µM with NCI-H522 lung; 39.5 µM in the assay on MALME-3M melanoma; > 100 µM in the assay with HS 578T breast; 73.4 µM with SNB-19 CNS; > 100 µM in the assay with UO-31 renal; > 100 µM in the assay on SW-620 colon. Further, the TGI with NCI-H226 lung was 38.5 µM; in the assay on A498 renal it was 72.1 µM; in the assay with T-47D breast it was 12.3 µM; with MOLT-4 leukemia, 68.7 µM; with RXF 393 renal, 5.01 µM; with ACHN renal, 71.4 µM. Also, the TGI in the assay on MDA-N is 87.9 µM; with PC-3 prostate, 45.8 µM; in the assay on UACC-62 melanoma, > 100 µM; in the assay with COLO 205 colon, 40.6 µM; in the assay with NCI/ADR-RES ovarian, > 100 µM; in the assay on HCT-116 colon it was 33.7 µM.

As to `O=C(CCc1ccc(O)cc1)NCCc1ccc(O)cc1`, the TGI in the assay with NCI-H522 lung, in the assay on MALME-3M melanoma, in the assay on HS 578T breast, in the assay with SNB-19 CNS, with UO-31 renal and in the assay with NCI-H226 lung was > 100 µM each time. For the same compound, the TGI with A498 renal, in the assay on T-47D breast, with MOLT-4 leukemia, in the assay with U251 CNS, with RXF 393 renal and with ACHN renal was > 100 µM throughout. The TGI in the assay with MDA-N, in the assay with PC-3 prostate, in the assay on UACC-62 melanoma, in the assay with COLO 205 colon, in the assay with NCI/ADR-RES ovarian and with HCT-116 colon was > 100 µM each time.
